Assay [1] deals with MHCII alleles (HLA-DP, DQ, DR and murine). Nature of the assay: FP probe binding assay: catalysis of MHC class II peptide exchange (FITC-probe loading). The class given is biochemical. As to conditions: catalyst in acidic assay buffer, 37° C. The procedure: To evaluate the kinetics of peptide exchange under various catalyzed and uncatalyzed conditions, the investigators evaluated the binding of FITC-probes at various incubation time points (FIG. 48A, left and right). […] Small molecule chaperones for MHCII loading have been previously described; the investigators tested if the commonly used n-octyl-beta-D-glucopyranoside—(abbreviated as OG) could function as a universal catalyst.
Fluorescence polarization (FP) based assays were developed to either assess the effect of catalysts on peptide exchange (direct loading of FITC-probes) or the IC50 of putative epitope peptides (competition assay). For assessing the loading kinetics of FITC-peptide probes, soluble MHCII protein (125 nM) was incubated with 20 nM of the corresponding allele-specific FITC-peptide FP probe (see Table 20) in either assay buffer alone (100 mM sodium acetate pH 5.2, 50 mM NaCl, 0.01% (v/v) Tween 20), or in combination with either 0.2% (w/v) octyl glucoside or 187.5 nM HLA-sDM in a final reaction volume of 45 μL in a 384-well Optiplate (Perkin Elmer). The plate was incubated at 37° C. and fluorescence polarization measured after 5 minutes, 1, 4, and 24 hours, as described below for the competition assay.

The conditions of assay [2]: with NYESO-1 peptide vaccine and Montanide; ovarian carcinoma; cited from earlier work.

Some results are limits rather than exact numbers.

Turning to `CCCCCCCCO[C@@H]1O[C@H](CO)[C@@H](O)[C@H](O)[C@H]1O` [OG, n-octyl-beta-D-glucopyranoside], the “FITC-probe loading onto MHCII alleles” value in assay [1] was “only promoted FITC-probe loading on a subset of HLA-DR and -DP alleles”.

poly-ICLC: the “patients with induction of CD4+ and CD8+ T cell and antibody responses to the peptide” value in assay [2] is on record as > 90%.

(Values after patent publication US20260031189A1, “METHOD AND SYSTEMS FOR PREDICTION OF HLA CLASS II-SPECIFIC EPITOPES AND CHARACTERIZATION OF CD4+ T CELLS” (BioNTech US Inc., priority 2022, published 2026).)
